Measured values reported in ChEMBL document CHEMBL5257057.
Activity calls are given as the source filed them. No cut-off for these calls is given here.

Columns and labels:
[1] = target: Tyrosine-protein kinase BTK (Homo sapiens) (UniProt Q06187); assay: Inhibition of BTK phosphorylation in human JeKo-1 cells at 0.01 to 10 uM incubated for 2 hrs by Western blot analysis; assay type: cell-based; details: dose 0.01-10 µM
[2] = target: Tyrosine-protein kinase BTK (Homo sapiens) (UniProt Q06187); assay: Inhibition of BTK (unknown origin) at 1 uM relative to control
[3] = target: Tyrosine-protein kinase Blk (Homo sapiens) (UniProt P51451); assay: Inhibition of BLK (unknown origin) at 1 uM relative to control
[4] = target: T1, Tyrosine-protein kinase TXK (Homo sapiens) (UniProt P42681); assay: Inhibition of TXK (unknown origin) at 1 uM relative to control
T1 sequence (whole entry): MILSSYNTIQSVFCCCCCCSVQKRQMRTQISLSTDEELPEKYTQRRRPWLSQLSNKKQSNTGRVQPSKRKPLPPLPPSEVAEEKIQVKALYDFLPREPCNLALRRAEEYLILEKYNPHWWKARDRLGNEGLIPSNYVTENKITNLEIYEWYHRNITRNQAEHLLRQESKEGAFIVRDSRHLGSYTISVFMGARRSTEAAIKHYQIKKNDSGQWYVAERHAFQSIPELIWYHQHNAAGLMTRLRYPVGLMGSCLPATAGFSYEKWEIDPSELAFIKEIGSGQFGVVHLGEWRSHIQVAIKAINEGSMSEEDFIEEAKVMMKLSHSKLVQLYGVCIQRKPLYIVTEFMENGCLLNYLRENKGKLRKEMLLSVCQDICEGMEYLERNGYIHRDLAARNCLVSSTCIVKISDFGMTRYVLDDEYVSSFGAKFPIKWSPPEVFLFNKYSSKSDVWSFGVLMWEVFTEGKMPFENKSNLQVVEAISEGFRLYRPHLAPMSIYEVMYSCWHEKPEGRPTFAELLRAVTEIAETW

[5] = target: Receptor tyrosine-protein kinase erbB-4 (Homo sapiens) (UniProt Q15303); assay: Inhibition of ERBB4 (unknown origin) at 1 uM relative to control
[6] = target: Tyrosine-protein kinase Lck (Homo sapiens) (UniProt P06239); assay: Inhibition of LCK (unknown origin) at 1 uM relative to control
[7] = target: Protein-tyrosine kinase 6 (Homo sapiens) (UniProt Q13882); assay: Inhibition of BRK (unknown origin) at 1 uM relative to control
[8] = target: Tyrosine-protein kinase Fgr (Homo sapiens) (UniProt P09769); assay: Inhibition of FGR (unknown origin) at 1 uM relative to control
[9] = target: Tyrosine-protein kinase Tec (Homo sapiens) (UniProt P42680); assay: Inhibition of TEC (unknown origin) at 1 uM relative to control
Chain of Tyrosine-protein kinase Tec (Homo sapiens) (P42680 whole entry, looked up): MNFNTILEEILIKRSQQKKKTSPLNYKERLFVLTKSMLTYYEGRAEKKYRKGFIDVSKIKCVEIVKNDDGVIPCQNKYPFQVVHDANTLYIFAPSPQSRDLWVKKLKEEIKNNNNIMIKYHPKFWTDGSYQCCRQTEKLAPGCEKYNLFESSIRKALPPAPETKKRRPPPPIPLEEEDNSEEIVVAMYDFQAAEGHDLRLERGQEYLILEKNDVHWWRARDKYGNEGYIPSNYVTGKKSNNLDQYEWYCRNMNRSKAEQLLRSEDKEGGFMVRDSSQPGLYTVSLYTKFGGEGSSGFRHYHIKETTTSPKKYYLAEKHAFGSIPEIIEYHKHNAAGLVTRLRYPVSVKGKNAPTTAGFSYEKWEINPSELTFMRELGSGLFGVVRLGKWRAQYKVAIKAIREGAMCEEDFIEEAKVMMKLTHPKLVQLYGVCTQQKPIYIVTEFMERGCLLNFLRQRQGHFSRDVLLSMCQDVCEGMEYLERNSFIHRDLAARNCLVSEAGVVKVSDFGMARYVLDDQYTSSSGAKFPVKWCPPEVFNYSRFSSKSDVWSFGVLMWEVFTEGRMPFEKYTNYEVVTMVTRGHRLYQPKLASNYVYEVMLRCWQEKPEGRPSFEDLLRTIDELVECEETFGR

Chain of Tyrosine-protein kinase BTK (Homo sapiens) (Q06187 whole entry): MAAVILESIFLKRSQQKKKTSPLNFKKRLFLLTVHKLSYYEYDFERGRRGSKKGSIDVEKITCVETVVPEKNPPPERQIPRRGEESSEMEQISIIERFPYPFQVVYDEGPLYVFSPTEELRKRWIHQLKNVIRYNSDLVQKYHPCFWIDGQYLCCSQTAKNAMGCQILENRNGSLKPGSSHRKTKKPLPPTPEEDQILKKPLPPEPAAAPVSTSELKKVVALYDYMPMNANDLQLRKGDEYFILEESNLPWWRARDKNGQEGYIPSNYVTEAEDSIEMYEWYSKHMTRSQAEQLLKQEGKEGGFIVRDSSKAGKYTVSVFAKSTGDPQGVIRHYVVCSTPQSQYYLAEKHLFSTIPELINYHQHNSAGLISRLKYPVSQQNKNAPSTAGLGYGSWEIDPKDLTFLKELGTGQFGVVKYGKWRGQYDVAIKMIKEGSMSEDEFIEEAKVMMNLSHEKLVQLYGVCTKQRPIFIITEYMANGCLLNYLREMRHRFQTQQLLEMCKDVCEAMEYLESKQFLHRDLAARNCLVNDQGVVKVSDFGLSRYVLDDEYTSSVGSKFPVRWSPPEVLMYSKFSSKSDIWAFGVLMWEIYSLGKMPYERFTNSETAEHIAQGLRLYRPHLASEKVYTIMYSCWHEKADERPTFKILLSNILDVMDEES
Chain of Tyrosine-protein kinase Lck (Homo sapiens) (P06239 2-509 limits assumed): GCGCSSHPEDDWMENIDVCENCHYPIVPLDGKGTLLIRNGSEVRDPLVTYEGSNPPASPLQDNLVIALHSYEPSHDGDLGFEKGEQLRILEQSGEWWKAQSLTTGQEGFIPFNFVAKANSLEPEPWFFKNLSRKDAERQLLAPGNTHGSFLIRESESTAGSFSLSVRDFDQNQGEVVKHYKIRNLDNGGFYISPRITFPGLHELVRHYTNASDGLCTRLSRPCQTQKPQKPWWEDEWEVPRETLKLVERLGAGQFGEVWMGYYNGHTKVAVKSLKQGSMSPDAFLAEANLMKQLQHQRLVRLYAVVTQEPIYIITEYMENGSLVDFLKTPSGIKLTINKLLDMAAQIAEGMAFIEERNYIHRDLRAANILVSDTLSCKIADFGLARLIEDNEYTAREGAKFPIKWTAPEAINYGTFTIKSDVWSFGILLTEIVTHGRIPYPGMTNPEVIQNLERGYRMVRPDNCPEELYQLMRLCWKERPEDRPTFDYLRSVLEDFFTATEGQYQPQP
Chain of Protein-tyrosine kinase 6 (Homo sapiens) (Q13882 whole entry, looked up): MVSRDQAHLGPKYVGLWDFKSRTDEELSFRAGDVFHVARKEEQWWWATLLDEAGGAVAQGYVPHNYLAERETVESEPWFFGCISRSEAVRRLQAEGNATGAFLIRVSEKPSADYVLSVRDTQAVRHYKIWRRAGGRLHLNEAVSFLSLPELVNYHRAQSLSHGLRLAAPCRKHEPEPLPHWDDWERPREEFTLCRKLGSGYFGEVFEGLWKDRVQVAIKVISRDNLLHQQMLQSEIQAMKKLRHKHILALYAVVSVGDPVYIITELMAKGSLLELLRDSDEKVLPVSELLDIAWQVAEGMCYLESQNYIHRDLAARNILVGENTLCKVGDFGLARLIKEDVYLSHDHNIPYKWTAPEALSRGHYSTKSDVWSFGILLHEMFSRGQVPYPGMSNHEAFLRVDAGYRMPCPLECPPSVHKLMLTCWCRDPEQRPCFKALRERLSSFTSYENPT
Chain of Tyrosine-protein kinase Fgr (Homo sapiens) (P09769 2-529 limits assumed): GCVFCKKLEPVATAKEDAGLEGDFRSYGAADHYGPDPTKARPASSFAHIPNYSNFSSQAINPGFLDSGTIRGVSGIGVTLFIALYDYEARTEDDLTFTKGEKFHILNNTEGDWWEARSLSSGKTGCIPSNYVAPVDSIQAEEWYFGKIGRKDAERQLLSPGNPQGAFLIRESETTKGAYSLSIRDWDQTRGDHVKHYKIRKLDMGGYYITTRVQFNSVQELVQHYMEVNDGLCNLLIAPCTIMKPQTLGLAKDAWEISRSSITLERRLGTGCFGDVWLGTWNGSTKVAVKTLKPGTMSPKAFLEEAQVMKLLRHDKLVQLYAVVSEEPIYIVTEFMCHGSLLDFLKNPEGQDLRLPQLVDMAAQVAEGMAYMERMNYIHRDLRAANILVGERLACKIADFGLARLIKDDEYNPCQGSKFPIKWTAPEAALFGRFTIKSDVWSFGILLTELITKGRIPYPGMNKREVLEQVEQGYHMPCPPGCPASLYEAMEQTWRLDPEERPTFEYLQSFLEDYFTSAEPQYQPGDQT
Chain of Tyrosine-protein kinase Blk (Homo sapiens) (P51451 2-505 limits assumed): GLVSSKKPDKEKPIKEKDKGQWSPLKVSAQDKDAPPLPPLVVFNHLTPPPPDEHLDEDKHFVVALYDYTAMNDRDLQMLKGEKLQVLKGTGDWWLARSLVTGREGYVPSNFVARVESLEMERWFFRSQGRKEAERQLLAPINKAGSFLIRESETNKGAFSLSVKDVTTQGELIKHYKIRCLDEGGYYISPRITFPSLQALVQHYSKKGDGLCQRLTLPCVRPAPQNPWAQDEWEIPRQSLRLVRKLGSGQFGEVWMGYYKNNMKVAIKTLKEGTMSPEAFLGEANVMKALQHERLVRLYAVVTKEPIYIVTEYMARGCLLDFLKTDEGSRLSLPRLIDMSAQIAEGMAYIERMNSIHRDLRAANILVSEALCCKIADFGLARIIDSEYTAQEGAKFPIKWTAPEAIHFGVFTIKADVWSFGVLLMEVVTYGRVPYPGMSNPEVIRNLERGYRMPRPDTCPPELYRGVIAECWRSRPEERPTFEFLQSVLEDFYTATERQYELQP
Chain of Receptor tyrosine-protein kinase erbB-4 (Homo sapiens) (Q15303 whole entry): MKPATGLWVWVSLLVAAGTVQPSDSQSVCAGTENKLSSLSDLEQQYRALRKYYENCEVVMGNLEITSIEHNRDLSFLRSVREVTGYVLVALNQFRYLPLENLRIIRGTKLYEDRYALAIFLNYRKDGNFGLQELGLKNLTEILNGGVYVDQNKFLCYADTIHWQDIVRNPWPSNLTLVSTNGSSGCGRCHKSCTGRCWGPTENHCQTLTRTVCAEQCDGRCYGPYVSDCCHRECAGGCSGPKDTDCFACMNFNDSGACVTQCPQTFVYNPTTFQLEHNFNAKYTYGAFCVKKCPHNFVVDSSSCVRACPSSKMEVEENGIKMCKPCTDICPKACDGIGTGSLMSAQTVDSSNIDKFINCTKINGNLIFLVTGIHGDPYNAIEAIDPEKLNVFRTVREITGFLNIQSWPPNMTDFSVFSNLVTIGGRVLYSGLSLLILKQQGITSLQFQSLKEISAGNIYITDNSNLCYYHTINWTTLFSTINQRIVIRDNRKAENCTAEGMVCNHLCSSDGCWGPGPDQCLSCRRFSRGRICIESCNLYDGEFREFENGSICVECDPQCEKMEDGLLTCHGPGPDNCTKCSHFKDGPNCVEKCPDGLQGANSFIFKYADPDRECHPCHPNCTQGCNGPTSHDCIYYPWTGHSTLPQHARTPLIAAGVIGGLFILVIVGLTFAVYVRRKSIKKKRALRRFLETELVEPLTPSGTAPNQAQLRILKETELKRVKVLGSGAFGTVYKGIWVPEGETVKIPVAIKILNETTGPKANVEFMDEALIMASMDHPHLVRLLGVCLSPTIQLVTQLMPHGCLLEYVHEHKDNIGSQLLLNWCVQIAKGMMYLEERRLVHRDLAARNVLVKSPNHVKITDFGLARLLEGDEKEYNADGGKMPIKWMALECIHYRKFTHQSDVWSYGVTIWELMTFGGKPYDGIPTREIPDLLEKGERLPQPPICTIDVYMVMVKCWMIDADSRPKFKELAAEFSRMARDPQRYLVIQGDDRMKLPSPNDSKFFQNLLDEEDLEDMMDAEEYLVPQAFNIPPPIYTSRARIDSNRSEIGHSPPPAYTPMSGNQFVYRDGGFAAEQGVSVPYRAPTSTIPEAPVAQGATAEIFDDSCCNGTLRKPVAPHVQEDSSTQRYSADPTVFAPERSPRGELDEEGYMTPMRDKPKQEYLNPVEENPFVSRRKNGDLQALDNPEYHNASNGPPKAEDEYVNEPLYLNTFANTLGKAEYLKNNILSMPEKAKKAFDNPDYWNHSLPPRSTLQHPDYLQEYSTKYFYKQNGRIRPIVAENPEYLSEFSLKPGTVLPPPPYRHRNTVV

Structure (SMILES) | inhibition [1] | inhibition [2] | inhibition [3] | inhibition [4] | inhibition [5] | inhibition [6] | inhibition [7] | inhibition [8] | inhibition [9]
C=CC(=O)N1CCC[C@H](n2nc(-c3ccc(Oc4ccccc4)cc3C)c3c(N)ncnc32)C1 | Active |  |  |  |  |  |  |  | 
C=CC(=O)N1CCC[C@H](n2nc(-c3c(C)cc(Oc4ccccc4)cc3C)c3c(N)ncnc32)C1 | Active | 10% | 10% | 10% | 10% | 50% | 50% | 50% | 10%
